#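 Test compounds were applied to cells in 96-well plates for 48 hours at 5 doses. GI50: concentration for 50% inhibition of growth.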 Calls of active or inactive are those of the source. No stated cut-off is given here; in the data, active = GI50 up to about 1.1 µM and inactive = higher.
# Tests used:
# Assay in all cases: NCI tumour cell line growth inhibition, 48 h
# MDA-MB-435 = system: MDA-MB-435
# HCT-116 = system: HCT-116
# SNB-78 = system: SNB-78
# OVCAR-3 = system: OVCAR-3
# NCI-H23 = system: NCI-H23
# SK-OV-3 = system: SK-OV-3
# SK-MEL-28 = system: SK-MEL-28
# SK-MEL-2 = system: SK-MEL-2
# ACHN = system: ACHN
# DLD-1 = system: DLD-1
# SR = system: SR
# NCI/ADR-RES = system: NCI/ADR-RES
# Hs-578T = system: Hs-578T
# OVCAR-4 = system: OVCAR-4
# HCT-15 = system: HCT-15
# NCI-H460 = system: NCI-H460
# MDA-MB-231 = system: MDA-MB-231
# HOP-62 = system: HOP-62
# PC-3 = system: PC-3
# UACC-257 = system: UACC-257
Structure (SMILES),GI50 (MDA-MB-435),GI50 (HCT-116),GI50 (SNB-78),GI50 (OVCAR-3),GI50 (NCI-H23),GI50 (SK-OV-3),GI50 (SK-MEL-28),GI50 (SK-MEL-2),GI50 (ACHN),GI50 (DLD-1),GI50 (SR),GI50 (NCI/ADR-RES),GI50 (Hs-578T),GI50 (OVCAR-4),GI50 (HCT-15) [µM],GI50 (NCI-H460),GI50 (MDA-MB-231),GI50 (HOP-62),GI50 (PC-3),GI50 (UACC-257)
C=C(CN(C)C)C(=O)c1ccc(Oc2ccccc2)cc1,3.85 µM (inactive),2.16 µM (inactive),16.3 µM (inactive),4.86 µM (inactive),7.71 µM (inactive),21.3 µM (inactive),7.66 µM (inactive),9.2 µM (inactive),1.8 µM (inactive),2.22 µM (inactive),0.692 µM (active),6.75 µM (inactive),8.73 µM (inactive),6.19 µM (inactive),3.68,27.3 µM (inactive),5.81 µM (inactive),19.7 µM (inactive),3.98 µM (inactive),8.36 µM (inactive)
CC1(C)CCC[C@@]2(C)C1CCC1(C)C(CCc3ccoc3)/C(=C/OS(=O)(=O)O)CCC12 (stereo not given in full),,16.5 µM (inactive),45.2 µM (inactive),> 100 µM (inactive),50.4 µM (inactive),71.9 µM (inactive),58.7 µM (inactive),58.5 µM (inactive),> 100 µM (inactive),34.5 µM (inactive),23.1 µM (inactive),,,52.5 µM (inactive),49.5,> 100 µM (inactive),,> 100 µM (inactive),,> 100 µM (inactive)
C=C(CN(C)C)C(=O)c1ccccc1,14.1 µM (inactive),5.51 µM (inactive),22.2 µM (inactive),3.63 µM (inactive),19.4 µM (inactive),21.7 µM (inactive),16.5 µM (inactive),15.2 µM (inactive),2.7 µM (inactive),2.11 µM (inactive),2.09 µM (inactive),32 µM (inactive),26.2 µM (inactive),11.4 µM (inactive),10.2,18.4 µM (inactive),15.1 µM (inactive),32.9 µM (inactive),16 µM (inactive),11.5 µM (inactive)

# Source: ChEMBL document CHEMBL1201862, “PubChem BioAssay data set” (2004)
